Assay [1] relates to UNC-52 (perlecan) in HE250. In words: Perlecan immunolocalization. In kind it is in vivo, Caenorhabditis elegans. As to conditions: HE250, 50 μM ThT, 24 h at 25° C. Here is the method: (§1) For fluorescent microscopy, TJ356 zIs356 IV [daf-16::daf-16-gfp+rol-6] or CF2189 Is001(skn-1::gfp+rol-6) were paralyzed with 1 mM levamisole mounted on 1% agarose pads and imaged using Olympus BX51 (60× objective) and HCImage software (Hamamatsu). For immunofluorescence, N2, […], CB1157 unc-54(e1157) or CL4176 dvIs27 [myo-3::Aβ(3 to 42)-let 3′UTR(pAF29); pRF4 (rol-6(su1006))] worms were treated for 24-36 h with or without 50 μM ThT at 25° C. After this period the worms were collected, rinsed, and fixed in 4% paraformaldehyde overnight. […] Paramyosin and perlecans were detected with primary monoclonal antibodies 5-23 and MH3 (developed by Henry Epstein and Robert H. Waterston and obtained from the Developmental Studies Hybridoma Bank developed under the auspices of the NICHD and maintained by The University of Iowa, Department of Biology, Iowa City, Iowa 52242) and AlexaFluor 633 goat anti-mouse (Molecular Probes) as secondary antibody. Soluble oligomers and Aβ peptide were detected with anti polyclonal All (Invitrogen) and 6E10 monoclonal (Covance) primary antibodies, respectively, with AlexaFluor 568 goat anti-rabbit and AlexaFluor 488 goat anti-mouse (Molecular Probes) as secondary antibodies. Images were processed and quantified by using Image Analyst MK II (Novato, Calif.).

In assay [2] the test system is HE250 [unc-52(e669su250)II]. In words: RNAi knockdown of proteostasis factors with paralysis scoring. As to conditions: HE250, 50 μM ThT. It counts as in vivo, Caenorhabditis elegans. Here is the method:
RNAi bacterial strains expressing double-stranded RNA that inactivates specified genes were cultured and utilized as previously described. (Timmons, L., Court, D. L. & Fire, A. Ingestion of bacterially expressed dsRNAs can produce specific and potent genetic interference in Caenorhabditis elegans. Gene 263, 103-112 (2001).) Briefly, eggs isolated from synchronous populations of unc-52(e669su250) cultures were placed on fresh RNAi plates and allowed to grow at 15° C.; 3 days later, L4 molt animals were transferred to new plates seeded with the same bacteria in presence or absence of ThT and switched to 25° C. The cultures were scored for paralysis after 48 h of treatment as described above. In all cases, 1 mM isopropyl-beta-D-thiogalactopyranoside (IPTG) was used for induction of double stranded RNA. In all the cases the identity of the clones was confirmed by sequencing.

For a further assay, the system named is wildtype (N2) worms. Briefly: Pharyngeal pumping rate. The conditions noted are these: 50 μM ThT. It counts as in vivo, Caenorhabditis elegans. Here is the method:
FIG. 11A-B. ThT produces small changes in pharyngeal pumping in N2 worms and increases lifespan on a dietary restriction model. a) Pharyngeal pumping rates of wildtype animals raised on 50 μM ThT measured at 3 (left panel) and 6 days of treatment (right panel). Pumping rates of 15 individuals were scored and the averages of three independent experiments are shown (*p<0.01). b) 1 and 10 μM ThT increase lifespan of N2 worms raised on 1×10^9 cfu/ml at 20° C. as compared to untreated worms (left panel). Percent gain in median survival of N2 populations cultured on 0-50 μM ThT (right panel). Bars are representative of 2 to 4 independent experiments per duplicate.

In assay [3] the test system is UNC-54 (paramyosin) in unc-54(e1157)I. Briefly: Paramyosin immunolocalization / sarcomere structure. In kind it is in vivo, Caenorhabditis elegans. As to conditions: 50 μM ThT, 24 h at 25° C. Here is the method:
as §1

Assay [4] concerns aggregation-prone soluble oligomeric protein (A11 antibody) in N2. Briefly: A11 immunolocalization of soluble oligomeric protein, N2. In kind it is in vivo, Caenorhabditis elegans. As to conditions: N2, 11 days old, 50 μM ThT. Here is the method: as §1
The target in assay [5] is Aβ3-42 aggregates in CL4176 (Homo sapiens, UniProt P05067). In words: Aβ aggregation in vivo by immunohistochemistry. As to conditions: CL4176, 50 μM ThT. The arrangement: species or system Caenorhabditis elegans.
Method: For immunofluorescence, N2, unc-He250 52(e669su250), CB1157 unc-54(e1157) or CL4176 dvIs27 [myo-3::Aβ(3 to 42)-let 3′UTR(pAF29); pRF4 (rol-6(su1006))] worms were treated for 24-36 h with or without 50 μM ThT at 25° C. After this period the worms were collected, rinsed, and fixed in 4% paraformaldehyde overnight. After fixation, worms were rinsed twice with 1 ml of 10 mM Tris-HCl pH 7.5 and then permeabilized by 24 h exposure to β-mercaptoethanol at 37° C. followed by collagenase treatment (2 mg/ml for 1-1.5 at 37° C.) to allow for digestion of the cuticle. Paramyosin and perlecans were detected with primary monoclonal antibodies 5-23 and MH3 (developed by Henry Epstein and Robert H. Waterston and obtained from the Developmental Studies Hybridoma Bank developed under the auspices of the NICHD and maintained by The University of Iowa, Department of Biology, Iowa City, Iowa 52242) and AlexaFluor 633 goat anti-mouse (Molecular Probes) as secondary antibody. Soluble oligomers and Aβ peptide were detected with anti polyclonal All (Invitrogen) and 6E10 monoclonal (Covance) primary antibodies, respectively, with AlexaFluor 568 goat anti-rabbit and AlexaFluor 488 goat anti-mouse (Molecular Probes) as secondary antibodies. Images were processed and quantified by using Image Analyst MK II (Novato, Calif.).
In another assay the test system is hsp-6 RNA. In words: Real time quantitative PCR, hsp-6. It counts as in vivo, Caenorhabditis elegans. As to conditions: 50 μM ThT, 3 and 6 days of treatment. Here is the method:
(§2) Twelve single adults from control or 50 μM ThT populations were picked after 3, 6 and 12 days of treatment into 5 μl of distilled water and flash frozen until extraction. Individual worms were extracted using the RNeasy Micro Kit, TissueLyser and QIAcube (Qiagen). Using the manufacturer's standard Animal Tissue protocol, each sample was homogenized in buffer RLT/Bme (Qiagen) on the TissueLyser (6 min total at 20 Hz). Samples, reagents and columns were then loaded into the QIAcube robot, and processed using the “RNeasy Micro—Animal tissues and cells—DNase digest” program. Each sample was then eluted in 14 μl of Nuclease-free water. cDNA templates for the Real Time PCR reactions were made using a combination of Message Sensor RT kit (Ambion's) and TaqMan PreAmp Master Mix (Applied Biosystems). The entire worm sample was added to the RT reaction and reversed transcribed at 50° C. for 20 min, using Message Sensor's “Two Step RT-PCR Protocol” (sample RT's were randomized). Then 2.5 μl of the cDNA sample was pre-amplified with a “4×Multiplex Primer Mix” for 14 cycles using TaqMan PreAmp master mix and protocol (ABI). Two modifications were made to ABI's protocol: 1. the reaction volume was reduced to 10 μl and 2. after pre-amplification, each cDNA sample was diluted 1:5 with 1XTE Buffer (Promega). cDNA samples were stored at −20° C. until needed. […]

Another assay has as its system unc-52 RNA. In words: Real time quantitative PCR, unc-52. In kind it is in vivo, Caenorhabditis elegans. As to conditions: 50 μM ThT, 12 days of treatment. Here is the method: as §2

Aβ3-42 aggregates in CL4176, sequence (P05067 674-713): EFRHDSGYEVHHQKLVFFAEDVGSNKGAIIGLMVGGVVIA

With `Cc1ccc2c(c1)sc(-c1ccc(N(C)C)cc1)[n+]2C.[Cl-]` [ThT, 4-(3,6-dimethyl-1,3-benzothiazol-3-ium-2-yl)-N,N-dimethylaniline chloride], the perlecan organization entry in assay [1] is “restored perlecan organization”. Also, the “ThT protection from paralysis with RNAi of proteasome and autophagy genes” value in assay [2] (RNAi aip-1, atg-9, vps-34) is “required for the beneficial effects of ThT”. Besides, the “ThT protection from paralysis with RNAi of acute stress genes” value in assay [2] (RNAi hsp-16.2, hsp-16.41) is listed as “decreased”. Besides, in assay [2] (daf-16 (RNAi)), the “ThT suppression of paralysis with daf-16 RNAi” value is listed as “potentiated”. In assay [2] (lmp-2(RNAi)), the “ThT effect on paralysis with lmp-2 RNAi” value was “significantly improved the ThT effect on paralysis”. Moreover, the “ThT effect on paralysis with skn-1 RNAi” value in assay [2] (skn-1 (RNAi)) was “required for ThT effect on the paralysis phenotype”. The “decrease in pharyngeal pumping rate” value with wildtype (N2) worms (after 3 days of treatment) is roughly 15%. Besides, in the assay with wildtype (N2) worms (after 6 days of treatment), the pharyngeal pumping rate entry is “No difference was detected”. In addition, the muscle sarcomere structure entry in assay [3] is listed as “prevented the disruption of the muscle sarcomeres”. In assay [4], the A11-positive oligomeric material result was “significantly decreased”. Moreover, the “Aβ aggregate formation and muscle integrity” value in assay [5] is “reduced aggregate formation and preserved the muscle integrity”. Also, in the assay with hsp-6 RNA, the “hsp-6 RNA levels” value is listed as “up-regulated”. Also, the “unc-52 RNA levels” value in the assay on unc-52 RNA is “decreases the levels of unc-52”.
